Where a name gives a salt, the structure may show the parent alone.
Experiments:
Erysiphe graminis = assay: preventive effect against powdery mildew of barley (Experimental Method 1); assay type: in vivo, Erysiphe graminis (on barley); conditions: 200 ppm; barley seedling, 8 days after inoculation
Description: Experimental Method 1 Experiment for preventive effect against powdery mildew of barley (Erysiphe graminis) […] The resultant solution was diluted with water to obtain a predetermined concentration of the active ingredient. To this diluted solution was added a sticker Dyne®[manufactured by Takeda Chemical Industries, Ltd., and including polyoxyethylenenonylphenylether (10 wt. %) and potassium ligninsulfonate (10 wt. %)] in a ratio of 0.03 wt. % (end concentration) to prepare a spray. Thus obtained spray was sprayed to a barley seedling (about one week seeding) such that the spray was dripped from the seedling. After air-drying, the spore of susceptible leaf with Erysiphe graminis was forcibly deposited for inoculation. The spore was maintained at an artificial inoculation chamber at a temperature of 20° C. for 8 days after the inoculation. Thereafter, the area rate of lesion was examined to represent the preventive value by the following coefficient. […] Preventive value 2: area rate of lesion 11-20% Preventive value 1: area rate of lesion 21-50% Preventive value 0: area rate of lesion 51% or more

Pyricularia oryzae = assay type: in vivo, Pyricularia oryzae (on rice); conditions: 200 ppm; rice seedling, 6 days after inoculation
[1] = system: Aspergillus niger IFO 4066; assay: paper disk growth inhibition on agar (antifungal spectrum); assay type: cell-based; conditions: IFO4066, 48 h, medium A (yeast nitrogen base agar, pH 7.0), 1000 μg/ml, 8 mm disk, 2 days, 28° C., read-out: Diameter of growth inhibition zone
Description: (§1) Evaluation for fungicidal acitivity of the compound (I) was carried out by the following method.
(§2) A paper disk (manufactured by TOYO SEISAKUSHO, 8mm in diameter) dipped into a methanol solution containing the compound (I) in an amount of 1000 μg/ml was placed on an agar plate containing various fungi. After the cultivation of said fungi for two days at 28° C., mesurement was made to the diameter of a growth inhibiton zone produced around the paper disk. The media used for the evaluation are as follows:
(§3) A: Yeast nitrogen base agar (pH 7.0)

[2] = system: Candida albicans IFO 0583; assay: as above; assay type: cell-based; conditions: IFO0583, 48 h, medium A (yeast nitrogen base agar, pH 7.0), 1000 μg/ml, 8 mm disk, 2 days, 28° C., read-out: Diameter of growth inhibition zone
Description: as §1, §2, §3

[3] = system: Cryptococcus neoformans IFO 0410; assay: as above; assay type: cell-based; conditions: IFO0410, 48 h, medium A (yeast nitrogen base agar, pH 7.0), 1000 μg/ml, 8 mm disk, 2 days, 28° C., read-out: Diameter of growth inhibition zone
Description: as §1, §2, §3

[4] = system: Aspergillus fumigatus IFO 6344; assay: as above; assay type: cell-based; conditions: IFO6344, 48 h, medium A (yeast nitrogen base agar, pH 7.0), 1000 μg/ml, 8 mm disk, 2 days, 28° C., read-out: Diameter of growth inhibition zone
Description: as §1, §2, §3

Candida utilis IFO 0619 = assay: as above; assay type: cell-based; conditions: Williopsis jadinii, IFO0619, 48 h, medium A (yeast nitrogen base agar, pH 7.0), 1000 μg/ml, 8 mm disk, 2 days, 28° C., read-out: Diameter of growth inhibition zone
Description: as §1, §2, §3

Candida albicans = assay: protective effect against experimental infection in mice; conditions: in Mus musculus, 168 h
Description: 5-Week old Crj:CDF1 mice were inoculated with the minimum lethal dose of Candida albicans in its vein or abdominal cavity. A drug was administered once immediately after the infection or twice, i.e., immediately after and two hours after the infection. The drug effect was shown with ED50 value calculated by Reed and Muench method from the survival ratio on day 7 after infection. The ED50 value was calculated from the total dose.

[5] = system: Microsporum gypseum IFO 6075; assay: paper disk growth inhibition on agar (antifungal spectrum); assay type: cell-based; conditions: Nannizzia gypsea, IFO6075, 48 h, medium B (Sabouraud's agar), 1000 μg/ml, 8 mm disk, 2 days, 28° C., read-out: Diameter of growth inhibition zone
Description: as §1
as §2, with “disk.” for “disk. The media used for the evaluation are as follows:”

[6] = system: Trichophyton methagrophytes IFO 7522; assay: as above; assay type: cell-based; conditions: IFO7522, 48 h, medium B (Sabouraud's agar), 1000 μg/ml, 8 mm disk, 2 days, 28° C., read-out: Diameter of growth inhibition zone
Description: as §1
as §2, with “disk.” for “disk. The media used for the evaluation are as follows:”

[7] = system: Trichophyton rubrum IFO 6467; assay: as above; assay type: cell-based; conditions: IFO6467, 48 h, medium B (Sabouraud's agar), 1000 μg/ml, 8 mm disk, 2 days, 28° C., read-out: Diameter of growth inhibition zone
Description: as §1
as §2, with “disk.” for “disk. The media used for the evaluation are as follows:”

Row | SMILES | Preventive Value for Erysiphe graminis (Erysiphe graminis) | Preventive Value for Pyricularia oryzae (Pyricularia oryzae) | zone of inhibition at 1000 µg/mL [1] [mm] | zone of inhibition at 1000 µg/mL [2] [mm] | zone of inhibition at 1000 µg/mL [3] [mm] | zone of inhibition at 1000 µg/mL [4] [mm] | zone of inhibition at 1000 µg/mL (Candida utilis IFO 0619) [mm] | ED50 (Candida albicans; sc) [mg/kg] | zone of inhibition at 1000 µg/mL [5] [mm] | zone of inhibition at 1000 µg/mL [6] [mm] | zone of inhibition at 1000 µg/mL [7] [mm] | ED50 (Candida albicans; po) [mg/kg]
1 | CCN(CC)C(=S)S[C@H](C)[C@](O)(Cn1cncn1)c1ccc(F)cc1F (racemic) [Compound 1, [(2RS,3RS)-3-(2,4-difluorophenyl)-3-hydroxy-4-(1H-1,2,4-triazol-1-yl)-2butyl] N,N-diethyldithiocarbamate] | 3 (area rate of lesion 0-10%) | 3 (area rate of lesion 0-14%) | 28 | 40 | 35 | 45 | 32 | 2 | 40 | 40 | 35 | –
2 | CCN(CC)C(=S)S[C@H](C)[C@](O)(Cn1cncn1)c1ccc(F)cc1F.Cl [Compound 2, [(2R,3R)-3-(2,4-difluorophenyl)-3-hydroxy-4-(1H-1,2,4-triazol-1-yl)-2-butyl] N,N-diethyldithiocarbamate hydrochloride] | 3 (area rate of lesion 0-10%) | 3 (area rate of lesion 0-14%) | 35 | 30 | 30 | 50 | 40 | – | 48 | 48 | 40 | 0.5
3 | Cc1cccc(N(C)C(=S)S[C@H](C)[C@](O)(Cn2cncn2)c2ccc(F)cc2F)c1 [Compound 9, [(2R,3R)-3-(2,4-difluorophenyl)-3-hydroxy-4-(1H,1,2,4-triazol-1-yl)-2-butyl] N-methyl-N-(3-methylphenyl) dithiocarbamate hydrochloride] | – | – | 13 | 25 | 20 | 15 | 20 | – | 20 | 15 | 30 | 2

Source: patent publication US5387599A, “Triazoles, their production and use” (Takeda Chemical Industries, Ltd., priority 1990, dated 1995)
